The text below walks through data of patent publication US4831046A, “Tetrazole derivatives of 1,3-dioxane and thromboxane A2 antigonizing use thereof” (Imperial Chemical Industries PLC, priority 1985, dated 1989).

The pA2 is a measure of antagonist potency on a negative log scale. Read a high pA2 as a more potent antagonist.

One experiment has as its system rabbit aortal strip. Briefly: rabbit aortal strip model (agonist TXA2 or U46619). The experiment is classed as cell-based. The note with it: test (a), TXA2 antagonism. The procedure:
(§1) As stated earlier, the compounds of formula I are antagonists of one or more of the actions of TXA2, for example certain of its actions on blood platelets, the vasculature and/or the lung.
(a) The rabbit aortal strip model devised by Piper and Vane (Nature, 1969, 223, 29-35) using as agonist a freshly prepared sample of TXA2, generated by addition of arachidonic acid (25 μg) to citrated, platelet rich rabbit plasma (250 μl) and allowing the mixture to aggregate fully over 90 seconds before use; alternatively the TXA2 mimetic agent known as U46619 (described by R L Jones et alia, in "Chemistry, Biochemistry and Pharmacological Activity of Prostanoids" edited by S M Roberts and F Scheinmann, at page 211, Pergamon Press, 1979) may be used as the agonist;

For experiment [1], the target named is T1, human, citrated platelet-rich plasma (Homo sapiens, UniProt P21731).
T1 construct: aggregating human, citrated platelet-rich plasma by addition of the TXA2 mimetic agent U46619; endogenous in cells; host or cells: human platelets in citrated platelet-rich plasma
T1 sequence (P21731 1-343): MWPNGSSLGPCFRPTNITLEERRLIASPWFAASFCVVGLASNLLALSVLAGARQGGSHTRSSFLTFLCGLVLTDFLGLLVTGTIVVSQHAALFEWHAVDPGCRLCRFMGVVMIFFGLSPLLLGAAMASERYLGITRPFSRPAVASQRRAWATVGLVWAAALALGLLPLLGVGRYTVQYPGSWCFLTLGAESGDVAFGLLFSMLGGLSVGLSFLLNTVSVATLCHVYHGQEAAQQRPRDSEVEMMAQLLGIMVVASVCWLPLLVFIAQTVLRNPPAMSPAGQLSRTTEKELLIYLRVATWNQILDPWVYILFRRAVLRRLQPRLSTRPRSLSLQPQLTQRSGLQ
Briefly: blood platelet aggregation test (U46619, based on Born). The experiment is classed as cell-based. To be noted: test (b), averaged over several concentrations.
Source text: as §1
(b) a blood platelet aggregation test based on that described by Born (Nature, 1962, 194, 927-929) and involving:
(i) aggregating human, citrated platelet-rich plasma by addition of the TXA2 mimetic agent U46619 so that a dose-response curve is generated;
(ii) generating a dose-response curve for U46619 stimulated platelet aggregation in the presence of increasing amounts of test compound (generally in the range, 10^-5 M to 10^-10 M); and
(iii) calculating a KB value indicating potency of TXA2 antagonism for the test compound averaged over several concentrations, from the calculated 50% response value for U46619 aggregation in the presence and absence of test compound; and […]

The test system of experiment [2] is U46619 induced bronchoconstriction. Briefly: bronchoconstriction test, U46619 induced, Konzett-Rossler anaesthetised guinea-pig model. The experiment is classed as in vivo. To be noted: test (c), 50 μg/kg p.o., 50% response.
Source text: as §1
(c) a bronchoconstriction test involving measuring the inhibition by a test compound of the bronchoconstriction induced in the Konzett-Rossler, anaesthetised guinea-pig model (as modified by Collier and James, Brit. J. Pharmacol., 1967, 30, 283-307) by intravenous administration of the TXA2 mimetic agent, U46619 and involving:
(i) obtaining a cumulative dose-response curve to U46619 induced bronchoconstriction by intravenous administration of constant volumes of increasing concentrations of U46619 (0.2-4 μg/kg) in physiological saline solution and expressing bronchoconstriction as the maximum of that theoretically obtainable with no air flow to the test animal;
(ii) generating a cumulative dose-response curve to U46619 induced bronchoconstriction at 30 minute intervals for 3 hours after oral dosing of test compound; and
(iii) calculating a dose-ratio for the test compound (that is the ratio of concentration of U46619 required to cause 50% bronchoconstriction in the presence and absence of test compound) indicating the potency of TXA2 antagonism.

As for `CC(C)[C@@H]1OC[C@H](C/C=C\CCc2nn[nH]n2)[C@H](c2ccccc2O)O1` (relative stereo) [Example 5, 5-[3(Z)-5-([2,4,5-cis]-4-o-hydroxyphenyl-2-isopropyl-1,3-dioxan-5-yl)pentenyl]-1(H)-tetrazole], in the experiment on rabbit aortal strip, the pA2 came out at 7.32. This molecule yielded a Kb in experiment [1] of 45.6 nM. The dose ratio in experiment [2] amounted to 25.
